How the values were obtained:
[1] = system: mice inoculated with tumour cells (ISA); assay: In vivo MRI contrast enhancement (En %); conditions: 0.1 mmol/Kg
Protocol: The increase in contrast (En %) generated by the administration of the complex according to the present invention Fe(DFX)2, obtained as per Example 1 (0.1 mmol/Kg), was measured and compared with the one induced by the Gd-DTPA complex (known by the trade name of Magnevist) at the same dose and under the same experimental conditions. The measurements were performed (in vivo), under a fixed magnetic field of 3T and 7T, in mice inoculated with tumour cells (ISA). The images were acquired when the size of the subcutaneous tumour had reached about 1-2 cm (i.e. about 15-20 days after inoculation).

[2] = Fixed-field relaxometric measurements in human serum and in water; type: physicochemical; conditions: for r1p / r2p: 1 T, 37° C.
Protocol: Fixed-field relaxometric measurements were performed using the [Fe(DFX)2Meg3] complex obtained as per Example 1, comparing it with two prior art complexes, Gd-DTPA and Fe-DTPA.

CNC[C@H](O)[C@@H](O)[C@H](O)[C@H](O)CO.CNC[C@H](O)[C@@H](O)[C@H](O)[C@H](O)CO.O=C([O-])CN(CCN(CC(=O)[O-])CC(=O)O)CCN(CC(=O)[O-])CC(=O)O.[Gd+3] [Gd-DTPA, gadopentetic acid]
renal excretion (kidneys and bladder contrast) compared with Fe(DFX)2 [1]: more rapid renal excretion | r1p ([2]; Human serum): 4.1 (1 T, 37° C.) | r2p ([2]; Human serum): 4.8 (1 T, 37° C.) | relaxivity in human serum ([2]; human serum, 37° C. and 1T): 3.4 mM⁻¹ s⁻¹ | r1p ([2]; water): 3.4 (1 T, 37° C.) | r2p ([2]; water): 3.9 (1 T, 37° C.)
